Test [1] has as its system Neonatal Rat Ventricular Myocytes (NRVMs). Briefly: Myocyte proliferation assay (EdU assay) in neonatal rat ventricular myocytes. In kind it is cell-based. As to conditions: growth relative to blank myocyte growth without compound added; for Avg 1 uM (average myocyte proliferation): compound 1 uM; for Avg 3 uM (average myocyte proliferation): compound 3 uM; for Avg 10 uM (average myocyte proliferation): compound 10 uM. The gist of the method: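 Neonatal rat ventricular myocytes, fibroblast-depleted by preplating, serum-starved 24 h (2% FBS/ITS), then given compound at 10, 3 or 1 uM in 6% FBS medium for 36 h before 12 h EdU labelling. Fixed cells stained for EdU (Click-iT), ab8295 primary antibody and DAPI; quantified by high-content confocal imaging.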

The target in another test is T1, human CLK1 (Homo sapiens, UniProt P49759).
T1 construct: Recombinant human CLK1 (129-end); GST (N); purchased SignalChem C57-11G; host or cells: Sf9 insect cells
T1 sequence (P49759 129-484 limits assumed): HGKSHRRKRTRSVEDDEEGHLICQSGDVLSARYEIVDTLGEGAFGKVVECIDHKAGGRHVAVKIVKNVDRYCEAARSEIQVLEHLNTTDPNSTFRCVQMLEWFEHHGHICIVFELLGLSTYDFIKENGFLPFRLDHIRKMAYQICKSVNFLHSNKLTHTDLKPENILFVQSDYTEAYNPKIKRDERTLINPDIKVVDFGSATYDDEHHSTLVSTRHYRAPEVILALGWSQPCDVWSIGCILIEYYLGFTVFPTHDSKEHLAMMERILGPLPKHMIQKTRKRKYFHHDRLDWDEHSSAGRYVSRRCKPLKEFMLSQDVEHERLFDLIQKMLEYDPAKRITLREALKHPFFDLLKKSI
The test can be described thus: CLK1 enzyme assay (ADP-Glo). In kind it is biochemical. The gist of the method: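 GST-tagged CLK1 (129-end, Sf9-expressed) at 16 nM was preincubated with compound 30 min at 25 °C in 40 mM Tris pH 7.5, 20 mM MgCl2, 0.1 mg/ml BSA, 50 μM DTT. Reaction with 2 μM substrate and 10 μM ATP ran 60 min at 25 °C. ADP-Glo luminescence gave IC50 by four-parameter fit.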
On the technique in general: ADP-Glo turns the ADP formed in a reaction into a luminescent signal.

Where [2] appears, read: ADP-Glo, ATP 10 μM, read-out: CLK1 IC50.

The record followed here is patent US12643887B2, “Heterocyclic derivatives with cardiomyocyte proliferation activity for treatment of heart diseases” (Tongji University, priority 2019, dated 2026).

The structures appear in SMILES notation. pIC50: −log10 of the molar value. Like-named read-outs stand apart in the source and are kept apart here.

In general, pIC50 refers to the negative decadic logarithm of the IC50, by convention in mol/L.

Regarding `CN(C1=N/C(=C\c2ccc3ncccc3c2)C(=O)N1)c1ccc2ncsc2c1` [Example 85, (Z)-2-(benzo[d]thiazol-6-yl(methyl)amino)-5-(quinolin-6-ylmethylene)-3,5-dihydro-4H-imidazol-4-one], in test [1], the “Avg 1 uM (average myocyte proliferation)” value is listed as “* (<10% growth relative to blank myocyte growth without compound added.)” and the “Avg 3 uM (average myocyte proliferation)” value is listed as “** (10%-50%)”. Moreover, at human CLK1 (setting [2]), the pIC50 is 6.00 to 7.00.

`O=C1NC(Nc2ccc3ncsc3c2)=N/C1=C\c1ccc2nccnc2c1` [Example 94, (Z)-2-(benzo[d]thiazol-6-ylamino)-5-(quinoxalin-6-ylmethylene)-3,5-dihydro-4H-imidazol-4-one]: in test [1], the “Avg 1 uM (average myocyte proliferation)” value is “* (<10% growth relative to blank myocyte growth without compound added.)” and the “Avg 3 uM (average myocyte proliferation)” value is “* (<10% growth relative to blank myocyte growth without compound added.)”. Moreover, the pIC50 on human CLK1 (setting [2]) is below 5.00.

For the molecule `O=C1NC(=S)N/C1=C\c1ccc2sccc2c1` [Example 96, (Z)-5-(benzo[b]thiophen-5-ylmethylene)-2-thioxoimidazolidin-4-one], in test [1], the “Avg 1 uM (average myocyte proliferation)” value was “* (<10% growth relative to blank myocyte growth without compound added.)” and the “Avg 3 uM (average myocyte proliferation)” value is “* (<10% growth relative to blank myocyte growth without compound added.)”. Besides, the negative-log IC50 (pIC50) on human CLK1 (setting [2]) was below 5.00.

For the molecule `O=C1NC(N(Cc2ccccc2)c2ccc3ncsc3c2)=N/C1=C\c1ccc2ncsc2c1` [Example 99, (Z)-2-(benzo[d]thiazol-6-yl(benzyl)amino)-5-(benzo[d]thiazol-6-ylmethylene)-3,5-dihydro-4H-imidazol-4-one], in test [1], the “Avg 1 uM (average myocyte proliferation)” value is listed as “** (10%-50%)” and the “Avg 3 uM (average myocyte proliferation)” value is listed as “* (<10% growth relative to blank myocyte growth without compound added.)”. Further, the pIC50 on human CLK1 (setting [2]) was above 7.00.

For the molecule `CCN(C1=N/C(=C\c2ccc3c(c2)OCO3)C(=O)N1)c1ccccc1` [Example 4, (Z)-5-(benzo[d][1,3]dioxol-5-ylmethylene)-2-(ethyl(phenyl)amino)-3,5-dihydro-4H-imidazol-4-one], in test [1], the “Avg 1 uM (average myocyte proliferation)” value is listed as “** (10%-50%)”, the “Avg 3 uM (average myocyte proliferation)” value was “** (10%-50%)” and the “Avg 10 uM (average myocyte proliferation)” value was “** (10%-50%)”. Besides, the pIC50 at human CLK1 (setting [2]) is 6.00 to 7.00.

As to `Nc1ccc(NC2=N/C(=C\c3ccc4ncsc4c3)C(=O)N2)cc1` [Example 98, (Z)-2-((4-aminophenyl)amino)-5-(benzo[d]thiazol-6-ylmethylene)-3,5-dihydro-4H-imidazol-4-one], in test [1], the “Avg 1 uM (average myocyte proliferation)” value was “** (10%-50%)” and the “Avg 3 uM (average myocyte proliferation)” value is reported as “** (10%-50%)”. Also, the negative logarithm of the IC50 (pIC50) at human CLK1 (setting [2]) is above 7.00.

As for `Cn1cnc2ccc(NC3=N/C(=C\c4ccc5ncsc5c4)C(=O)N3)cc21` [Example 93, (Z)-5-(benzo[d]thiazol-6-ylmethylene)-2-((1-methyl-1H-benzo[d]imidazol-6-yl)amino)-3,5-dihydro-4H-imidazol-4-one], in test [1], the “Avg 1 uM (average myocyte proliferation)” value was “* (<10% growth relative to blank myocyte growth without compound added.)” and the “Avg 3 uM (average myocyte proliferation)” value is listed as “** (10%-50%)”. For the same molecule, the pIC50 on human CLK1 (setting [2]) was above 7.00.

As for `O=C1NC(Nc2ccc3nc[nH]c3c2)=N/C1=C\c1ccc2ncsc2c1` [Example 97, (Z)-2-((1H-benzo[d]imidazol-6-yl)amino)-5-(benzo[d]thiazol-6-ylmethylene)-3,5-dihydro-4H-imidazol-4-one], in test [1], the “Avg 1 uM (average myocyte proliferation)” value is on record as “* (<10% growth relative to blank myocyte growth without compound added.)” and the “Avg 3 uM (average myocyte proliferation)” value is “* (<10% growth relative to blank myocyte growth without compound added.)”. The pIC50 on human CLK1 (setting [2]) is 6.00 to 7.00.

For the molecule `CC(=O)N(C1=N/C(=C\c2ccc3ncsc3c2)C(=O)N1)c1ccc2ncsc2c1` [Example 91, (Z)—N-(benzo[d]thiazol-6-yl)-N-(4-(benzo[d]thiazol-6-ylmethylene)-5-oxo-4,5-dihydro-1H-imidazol-2-yl)acetamide], in test [1], the “Avg 1 uM (average myocyte proliferation)” value is “* (<10% growth relative to blank myocyte growth without compound added.)” and the “Avg 3 uM (average myocyte proliferation)” value is listed as “* (<10% growth relative to blank myocyte growth without compound added.)”. Moreover, the negative-log IC50 (pIC50) at human CLK1 (setting [2]) was above 7.00.

In the case of `CC(C)Nc1nc2ccc(NC3=N/C(=C\c4ccc5ncsc5c4)C(=O)N3)cc2s1` [Example 100, (Z)-5-(benzo[d]thiazol-6-ylmethylene)-2-((2-(isopropylamino)benzo[d]thiazol-6-yl)amino)-3,5-dihydro-4H-imidazol-4-one], in test [1], the “Avg 1 uM (average myocyte proliferation)” value is listed as “** (10%-50%)” and the “Avg 3 uM (average myocyte proliferation)” value is reported as “** (10%-50%)”. In addition, on human CLK1 (setting [2]), the pIC50 is 5.00 to 6.00.

As to `CN1C(=O)/C(=C/c2ccc3ncsc3c2)N=C1Nc1ccc2ncsc2c1` [Example 88, (Z)-2-(benzo[d]thiazol-6-ylamino)-5-(benzo[d]thiazol-6-ylmethylene)-3-methyl-3,5-dihydro-4H-imidazol-4-one], in test [1], the “Avg 1 uM (average myocyte proliferation)” value is on record as “* (<10% growth relative to blank myocyte growth without compound added.)” and the “Avg 3 uM (average myocyte proliferation)” value is on record as “* (<10% growth relative to blank myocyte growth without compound added.)”. The pIC50 on human CLK1 (setting [2]) was above 7.00.

Consider `O=C1NC(Nc2ccc3ncsc3c2)=N/C1=C\c1cncs1` [Example 92, (Z)-2-(benzo[d]thiazol-6-ylamino)-5-(thiazol-5-ylmethylene)-3,5-dihydro-4H-imidazol-4-one], for which, in test [1], the “Avg 1 uM (average myocyte proliferation)” value is “* (<10% growth relative to blank myocyte growth without compound added.)” and the “Avg 3 uM (average myocyte proliferation)” value is “* (<10% growth relative to blank myocyte growth without compound added.)”. Also, the pIC50 at human CLK1 (setting [2]) is above 7.00.

For `COCCN(C1=N/C(=C\c2ccc3ncsc3c2)C(=O)N1)c1ccc2ncsc2c1` [Example 89, (Z)-2-(benzo[d]thiazol-6-yl(2-methoxyethyl)amino)-5-(benzo[d]thiazol-6-ylmethylene)-3,5-dihydro-4H-imidazol-4-one], in test [1], the “Avg 1 uM (average myocyte proliferation)” value is listed as “** (10%-50%)” and the “Avg 3 uM (average myocyte proliferation)” value is reported as “* (<10% growth relative to blank myocyte growth without compound added.)”. On human CLK1 (setting [2]), the pIC50 was above 7.00.

Turning to `Cc1nc2ccc(NC3=N/C(=C\c4ccc5ncsc5c4)C(=O)N3)cc2s1` [Example 90, (Z)-5-(benzo[d]thiazol-6-ylmethylene)-2-((2-methylbenzo[d]thiazol-6-yl)amino)-3,5-dihydro-4H-imidazol-4-one], in test [1], the “Avg 1 uM (average myocyte proliferation)” value was “** (10%-50%)” and the “Avg 3 uM (average myocyte proliferation)” value is recorded as “** (10%-50%)”. Further, the pIC50 on human CLK1 (setting [2]) was above 7.00.

`CN(C1=N/C(=C\c2ccc3[nH]ccc3c2)C(=O)N1)c1ccc2ncsc2c1` [Example 87, (Z)-5-((1H-indol-5-yl)methylene)-2-(benzo[d]thiazol-6-yl(methyl)amino)-3,5-dihydro-4H-imidazol-4-one]: in test [1], the “Avg 1 uM (average myocyte proliferation)” value is “** (10%-50%)” and the “Avg 3 uM (average myocyte proliferation)” value is given as “** (10%-50%)”. In addition, the pIC50 at human CLK1 (setting [2]) is below 5.00.

As to `CC(=O)N(C1=N/C(=C\c2ccc3c(c2)OCO3)C(=O)N1)c1ccccc1` [Example 5, (Z)—N-(4-(benzo[d][1,3]dioxol-5-ylmethylene)-5-oxo-4,5-dihydro-1H-imidazol-2-yl)-N-phenylacetamide], in test [1], the “Avg 1 uM (average myocyte proliferation)” value is reported as “** (10%-50%)”, the “Avg 3 uM (average myocyte proliferation)” value is reported as “** (10%-50%)” and the “Avg 10 uM (average myocyte proliferation)” value is given as “*** (>50%)”. Besides, the pIC50 at human CLK1 is 6.00 to 7.00.

With `O=C1NC(Nc2ccc3ncsc3c2)=N/C1=C\c1ccc2cn[nH]c2c1` [Example 95, (Z)-5-((1H-indazol-6-yl)methylene)-2-(benzo[d]thiazol-6-ylamino)-3,5-dihydro-4H-imidazol-4-one], in test [1], the “Avg 1 uM (average myocyte proliferation)” value is reported as “* (<10% growth relative to blank myocyte growth without compound added.)” and the “Avg 3 uM (average myocyte proliferation)” value is “* (<10% growth relative to blank myocyte growth without compound added.)”. The pIC50 at human CLK1 (setting [2]) was below 5.00.

Take `O=C1NC(Nc2ccc3sccc3c2)=N/C1=C\c1ccc2ncsc2c1` [Example 101, (Z)-2-(benzo[b]thiophen-5-ylamino)-5-(benzo[d]thiazol-6-ylmethylene)-3,5-dihydro-4H-imidazol-4-one]: in test [1], the “Avg 1 uM (average myocyte proliferation)” value was “** (10%-50%)” and the “Avg 3 uM (average myocyte proliferation)” value was “* (<10% growth relative to blank myocyte growth without compound added.)”. Also, on human CLK1 (setting [2]), the pIC50 is 6.00 to 7.00.

With `CN(C1=N/C(=C\c2ccc3ncsc3c2)C(=O)N1)c1ccc2c(c1)ncn2C` [Example 86, (Z)-5-(benzo[d]thiazol-6-ylmethylene)-2-(methyl(1-methyl-1H-benzo[d]imidazol-5-yl)amino)-3,5-dihydro-4H-imidazol-4-one], in test [1], the “Avg 1 uM (average myocyte proliferation)” value is “** (10%-50%)” and the “Avg 3 uM (average myocyte proliferation)” value is on record as “** (10%-50%)”. Further, on human CLK1 (setting [2]), the pIC50 is 5.00 to 6.00.
